Measured values: patent US6872724B2, “Polymorphs with tyrosine kinase activity” (Merck & Co., Inc., priority 2002, dated 2005)

Target: T1, human KDR (Homo sapiens, UniProt P35968)
T1 construct: cloning the cytoplasmic domain of the KDR kinase as an in frame fusion at the carboxy terminus of the GST gene; made in house; host or cells: Spodoptera frugiperda (Sf21) insect cells, baculovirus vector pAcG2T
Experiment: VEGF receptor kinase assay
Assay type: biochemical
Description: I. VEGF Receptor Kinase Assay
VEGF receptor kinase activity is measured by incorporation of radio-labeled phosphate into polyglutamic acid, tyrosine, 4:1 (pEY) substrate. The phosphorylated pEY product is trapped onto a filter membrane and the incorporation of radio-labeled phosphate quantified by scintillation counting.
VEGF Receptor Kinase The intracellular tyrosine kinase domains of human KDR (Terman, B. I. et al. Oncogene (1991) vol. 6, pp. 1677-1683.) and Flt-1 (Shibuya, M. et al. Oncogene (1990) vol. 5, pp. 519-524) were cloned as glutathione S-transferase (GST) gene fusion proteins. This was accomplished by cloning the cytoplasmic domain of the KDR kinase as an in frame fusion at the carboxy terminus of the GST gene. Soluble recombinant GST-kinase domain fusion proteins were expressed in Spodoptera frugiperda (Sf21) insect cells (Invitrogen) using a baculovirus expression vector (pAcG2T, Pharmingen). […]

T1 sequence (P35968 786-1356 limits assumed): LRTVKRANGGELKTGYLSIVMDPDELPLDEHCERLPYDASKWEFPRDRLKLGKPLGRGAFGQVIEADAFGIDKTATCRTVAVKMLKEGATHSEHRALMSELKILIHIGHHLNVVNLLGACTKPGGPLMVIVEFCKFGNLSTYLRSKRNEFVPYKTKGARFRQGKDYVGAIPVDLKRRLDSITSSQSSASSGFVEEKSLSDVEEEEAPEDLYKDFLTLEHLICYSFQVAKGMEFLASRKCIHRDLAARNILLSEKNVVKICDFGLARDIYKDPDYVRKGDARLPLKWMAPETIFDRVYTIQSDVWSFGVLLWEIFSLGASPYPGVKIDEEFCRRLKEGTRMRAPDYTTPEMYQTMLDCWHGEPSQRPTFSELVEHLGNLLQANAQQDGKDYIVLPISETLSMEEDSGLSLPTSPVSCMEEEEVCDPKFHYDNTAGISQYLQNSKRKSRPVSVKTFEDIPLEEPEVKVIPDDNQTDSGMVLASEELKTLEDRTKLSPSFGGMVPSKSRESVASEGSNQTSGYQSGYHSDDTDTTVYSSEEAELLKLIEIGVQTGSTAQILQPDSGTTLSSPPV

CNC(=O)N1CCN(Cc2ccnc(Nc3ncc(C#N)s3)c2)CC1 [Compound 4-4, 4-[2-(5-cyano-thiazol-2-ylamino)-pyridin-4-ylmethyl]-piperazine-1-carboxylic acid methylamide]
kinase inhibitory activity: inhibits the kinase KDR
